Data from US4221800A, “Cycloalkenochromone” (Miles Laboratories, Inc., priority 1977, dated 1980).

Columns and labels:
mast cells = assay: inhibition of mast cell degranulation (spasmogen release) induced by phospholipase A; type: cell-based, rat; conditions: for Relative Potency (in relation to disodium cromoglycate): IC20 relative to disodium cromoglycate, rat mast cells; for IC20: Mast cell, rat peritoneal mast cells, 37° C., ten minutes, read-out: IC20 (inhibition of mast cell degranulation by 20%)
Description: The anti-allergic activity was determined by measuring the inhibition of allergic release of spasmogens from mast cells, using the method of Taylor et al., as described in Int. Arch. Allergy, 46, 104(1974).
The inhibition of spasmogen release from mast cells involved obtaining pools of mast cells from normal rats. For each experiment involving pools of mast cells, 10 or more rats were killed by decapitation. The peritoneal fluid from the animals was pooled and the pool dispensed into small polyethylene tubes […] containing 25 μl of a degranulating agent phospholipase A (PL-A), and 25 μl of the drug to be tested. Each treatment was repeated in at least four tubes. All the tubes were incubated at 37° C. for ten minutes. The mast cells were fixed and stained by addition of 50 μl/tube of 2.5% toluidine blue made up in 25% acetic acid. The proportion of mast cells undergoing degranulation was assessed by counting under the microscope. At least 25 mast cells were counted from each tube. The percentage inhibition of degranulation resulting from each treatment was calculated using the formula 100[1-(x-z)/(y-z)], where `x` represents the mean percentage of cells undergoing degranulation in the tubes treated with PL-A and drug, `y` represents the mean percentage of cells undergoing degranulation in the tubes treated with PL-A only, and "z" represents the mean percentage of cells undergoing degranulation in the PL-A-negative tubes.
[See Nature, Vo. 223, 197 (1969)].

[1] = system: allergen-induced bronchoconstriction; conditions: asthmatics; reference compound; cited from earlier work
[2] = system: allergic release of spasmogens in immediate hypersensitivity reactions; conditions: immediate hypersensitivity reactions in several animals; Nature 223, 197 (1969); cited from earlier work

SMILES | Relative Potency (in relation to disodium cromoglycate) (mast cells) | IC20 (mast cells) | inhibition of experimental allergen-induced bronchoconstriction (in words) [1] | inhibition of allergic release of spasmogens (in words) [2]
O=C(O)c1ccc2oc3c(c(=O)c2c1)CCCC3 [Example 1, 6-Carboxy-2,3-cyclohexenochromone] | 3.1 | 2100 nM | – | –
O=c1c2c(oc3ccc(-c4nn[nH]n4)cc13)CCCC2 [Example 2, 6-(5-(1H)-tetrazolyl)-2,3-cyclohexenochromone] | 3.8 | 1700 nM | – | –
CC1CCc2oc3ccc(C(=O)O)cc3c(=O)c2C1 (centres unmarked) [Example 3, 6-Carboxy-2,3-(4'-methylcyclohexeno)chromone] | 1.0 | 6500 nM | – | –
CC1CCc2oc3ccc(-c4nn[nH]n4)cc3c(=O)c2C1 (centres unmarked) [Example 4, 6-(5-(1H)-tetrazolyl)-2,3-(4'-methylcyclohexeno)chromone] | 1.4 | 4500 nM | – | –
CCC1CCc2oc3ccc(C(=O)O)cc3c(=O)c2C1 (centres unmarked) [Example 5, Sodium-6-carboxy-2,3-(4'-ethylcyclohexeno)chromone] | 11.2 | 580 nM | – | –
CCC1CCc2oc3ccc(-c4nn[nH]n4)cc3c(=O)c2C1 (centres unmarked) [Example 6, Sodium 6-(5-(1H)-tetrazolyl)-2,3-(4'-ethylcyclohexeno)chromone] | 6.5 | 1000 nM | – | –
O=C(O)c1ccc2oc3c(c(=O)c2c1)CC(C(=O)O)CC3 (centres unmarked) [Example 7, 6-Carboxy-2,3-(4'-carboxycyclohexeno)chromone] | 1.0 | 6500 nM | – | –
CCOC(=O)C1CCc2oc3ccc(-c4nn[nH]n4)cc3c(=O)c2C1 (centres unmarked) [Example 8, 6-(5-(1H)-tetrazolyl)-2,3-(4'-ethoxycarbonylcyclohexeno)chromone] | 1.6 | 4200 nM | – | –
O=c1c2c(oc3ccc(-c4nn[nH]n4)cc13)CCCCCC2 [Example 13, 6-(5-(1H)-tetrazolyl)-2,3-cyclooctenochromone] | 5.0 | 1300 nM | – | –
O=C(O)c1ccc2oc3c(c(=O)c2c1)CC(OCc1ccccc1)CC3 (centres unmarked) [Example 15, 6-Carboxy-2,3-(4'-benzyloxycyclohexeno)chromone] | 1.5 | 4300 nM | – | –
CSc1ccc2oc3c(c(=O)c2c1)CC(C(=O)O)CC3 (centres unmarked) [Example 18, 6-Methylthio-2,3-(4'-carboxycyclohexeno)chromone] | 5.0 | 1300 nM | – | –
CS(=O)(=O)c1ccc2oc3c(c(=O)c2c1)CC(C(=O)O)CC3 (centres unmarked) [Example 20, 6-Methylsulfonyl-2,3-(4'-carboxycyclohexeno)chromone] | 3.4 | 1900 nM | – | –
COC1CCc2oc3ccc(C(=O)O)cc3c(=O)c2C1 (centres unmarked) [Example 21, 6-Carboxy-2,3-(4'-methoxycyclohexeno)chromone] | 3.6 | 1800 nM | – | –
O=C(O)c1ccc2c(=O)c3c(oc2c1)CCCC3 [Example 24, 7-Carboxy-2,3-cyclohexenochromone] | 3.1 | 2100 nM | – | –
O=c1c2c(oc3cc(-c4nn[nH]n4)ccc13)CCCC2 [Example 25, 7(5-(1H)-tetrazolyl)-2,3-cyclohexenochromone] | 7.2 | 900 nM | – | –
CCC1CCc2oc3cc(C(=O)O)ccc3c(=O)c2C1 (centres unmarked) [Example 26, 7-Carboxy-2,3-(4'-ethylcyclohexeno)chromone] | > 13.0 | < 600 nM | – | –
CCC1CCc2oc3cc(-c4nn[nH]n4)ccc3c(=O)c2C1 (centres unmarked) [Example 27, 7-(5-(1H)-tetrazolyl)-2,3-(4'-ethylcyclohexeno)chromone] | > 13.0 | < 600 nM | – | –
CC1(c2ccccc2)CCc2oc3ccc(-c4nn[nH]n4)cc3c(=O)c2C1 (centres unmarked) [Example 31, 6-(5-(1H)-tetrazolyl)-2,3-(4'-methyl-4'-phenylcyclohexeno)chromone] | 4.3 | 1500 nM | – | –
CCC1CCC2=C(C1)C(=O)c1cc(C(=O)O)ccc1S2(=O)=O (centres unmarked) [Example 32, 6-Carboxy-2,3-(4'-ethylcyclohexeno)thiochromone-1,1-dioxide] | 10.8 | 600 nM | – | –
CCC1CCc2sc3ccc(C(=O)O)cc3c(=O)c2C1 (centres unmarked) [Example 33, 6-Carboxy-2,3-(4'-ethylcyclohexeno)thiochromone] | 1.41 | 4600 nM | – | –
CCC1CCc2sc3ccc(-c4nn[nH]n4)cc3c(=O)c2C1 (centres unmarked) [Example 35, 6-(5-(1H)-tetrazolyl)-2,3-(4'-ethylcyclohexeno)thiochromone] | 18,1 | 360 nM | – | –
O=C(O)c1cc(=O)c2c(OCC(O)COc3cccc4oc(C(=O)O)cc(=O)c34)cccc2o1 [disodium cromogylcate] | – | – | effective inhibitor of experimental allergen-induced bronchoconstriction in asthmatics | specifically inhibit the allergic release of spasmogens in immediate hypersensitivity reactions in several animals
